Measurements as given in ChEMBL document CHEMBL1201862, “PubChem BioAssay data set” (2004).
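Tested at 5 concentrations; 48 h exposure; 96-well plates; endpoints linearly interpolated, else capped at highest concentration. GI50 marks 50% less growth.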 The source made the active and inactive calls. Rule as the data show it: active = GI50 up to about 1.1 µM and inactive = higher.

Tests used:
Assay in all cases: DTP human tumour cell line panel, 48 h
HOP-92 = system: HOP-92
M14 = system: M14
NCI-H460 = system: NCI-H460
CAKI-1 = system: CAKI-1
TK-10 = system: TK-10
U-251 = system: U-251
HOP-62 = system: HOP-62
UACC-62 = system: UACC-62
ACHN = system: ACHN
SK-MEL-28 = system: SK-MEL-28
SN12C = system: SN12C
RPMI-8226 = system: RPMI-8226
SK-OV-3 = system: SK-OV-3
HCT-116 = system: HCT-116
EKVX = system: EKVX
NCI-H522 = system: NCI-H522

In the case of `CCCCCCc1cc(C(=O)Nc2cccc(C(F)(F)F)c2)nc(N)n1`, the GI50 (HOP-92) is reported as > 100 µM (inactive), the GI50 (M14) is reported as > 100 µM (inactive) and the GI50 (NCI-H460) is reported as > 100 µM (inactive). The GI50 (CAKI-1) was > 100 µM (inactive), the GI50 (TK-10) was > 100 µM (inactive) and the GI50 (U-251) was > 100 µM (inactive). For the same compound, the GI50 (HOP-62) was 63.4 µM (inactive), the GI50 (UACC-62) was > 100 µM (inactive) and the GI50 (ACHN) was > 100 µM (inactive). The GI50 (SK-MEL-28) was > 100 µM (inactive), the GI50 (SN12C) was > 100 µM (inactive) and the GI50 (RPMI-8226) was > 100 µM (inactive). For the same compound, the GI50 (SK-OV-3) was > 100 µM (inactive), the GI50 (HCT-116) was > 100 µM (inactive) and the GI50 (EKVX) was > 100 µM (inactive).

In the case of `COC12CCC(=O)C=C1c1ccccc1N2C(C)=O` (stereo not given), the GI50 (HOP-92) is reported as < 0.01 µM (active), the GI50 (NCI-H460) is reported as > 100 µM (inactive) and the GI50 (CAKI-1) is reported as > 100 µM (inactive). For the same compound, the GI50 (U-251) was > 100 µM (inactive), the GI50 (HOP-62) was > 100 µM (inactive) and the GI50 (UACC-62) was > 100 µM (inactive). For the same compound, the GI50 (ACHN) was > 100 µM (inactive), the GI50 (SK-MEL-28) was > 100 µM (inactive) and the GI50 (SN12C) was > 100 µM (inactive). The GI50 (RPMI-8226) was > 100 µM (inactive), the GI50 (SK-OV-3) was > 100 µM (inactive) and the GI50 (HCT-116) was > 100 µM (inactive). For the same compound, the GI50 (EKVX) was > 100 µM (inactive).

In the case of `Cc1nn(C)cc1P(=S)(c1ccccc1)c1ccccc1`, the GI50 (HOP-92) is reported as 35.2 µM (inactive), the GI50 (M14) is reported as 71.6 µM (inactive) and the GI50 (NCI-H460) is reported as 40.5 µM (inactive). For the same compound, the GI50 (CAKI-1) was 95.3 µM (inactive), the GI50 (TK-10) was > 100 µM (inactive) and the GI50 (U-251) was 92.5 µM (inactive). For the same compound, the GI50 (HOP-62) was 70.3 µM (inactive), the GI50 (UACC-62) was 47 µM (inactive) and the GI50 (ACHN) was 61.7 µM (inactive). The GI50 (SK-MEL-28) was > 100 µM (inactive), the GI50 (SN12C) was > 100 µM (inactive) and the GI50 (RPMI-8226) was 28.7 µM (inactive). The GI50 (SK-OV-3) was 24.8 µM (inactive), the GI50 (HCT-116) was 31.8 µM (inactive) and the GI50 (EKVX) was > 100 µM (inactive).

In the case of `O=C1OC(c2ccccc2)=N/C1=C/C=C/c1ccco1`, the GI50 (HOP-92) is reported as > 100 µM (inactive), the GI50 (M14) is reported as > 100 µM (inactive) and the GI50 (CAKI-1) is reported as > 100 µM (inactive). For the same compound, the GI50 (TK-10) was > 100 µM (inactive), the GI50 (U-251) was > 100 µM (inactive) and the GI50 (UACC-62) was > 100 µM (inactive). For the same compound, the GI50 (ACHN) was > 100 µM (inactive), the GI50 (SK-MEL-28) was > 100 µM (inactive) and the GI50 (SN12C) was > 100 µM (inactive). The GI50 (NCI-H522) was > 100 µM (inactive), the GI50 (SK-OV-3) was > 100 µM (inactive) and the GI50 (EKVX) was > 100 µM (inactive).

For `O=C1c2c(nc3ccccc3c2-c2ccccc2)CN1Nc1ccccc1`, the GI50 (HOP-92) was > 100 µM (inactive), the GI50 (M14) was > 100 µM (inactive) and the GI50 (CAKI-1) was > 100 µM (inactive). For the same compound, the GI50 (TK-10) was > 100 µM (inactive), the GI50 (HOP-62) was 53.8 µM (inactive) and the GI50 (UACC-62) was > 100 µM (inactive). The GI50 (SN12C) was > 100 µM (inactive), the GI50 (NCI-H522) was > 100 µM (inactive) and the GI50 (RPMI-8226) was > 100 µM (inactive). For the same compound, the GI50 (SK-OV-3) was > 100 µM (inactive), the GI50 (HCT-116) was > 100 µM (inactive) and the GI50 (EKVX) was > 100 µM (inactive).

With `COc1ccc2nc(NC(=O)C(=O)NNC(=O)c3ccncc3)sc2c1` the GI50 (HOP-92) was > 100 µM (inactive), the GI50 (M14) was > 100 µM (inactive) and the GI50 (NCI-H460) was > 100 µM (inactive). For the same compound, the GI50 (CAKI-1) was > 100 µM (inactive), the GI50 (TK-10) was > 100 µM (inactive) and the GI50 (U-251) was > 100 µM (inactive). For the same compound, the GI50 (HOP-62) was > 100 µM (inactive), the GI50 (UACC-62) was > 100 µM (inactive) and the GI50 (ACHN) was > 100 µM (inactive). The GI50 (SK-MEL-28) was > 100 µM (inactive), the GI50 (SN12C) was > 100 µM (inactive) and the GI50 (NCI-H522) was > 100 µM (inactive). For the same compound, the GI50 (SK-OV-3) was > 100 µM (inactive), the GI50 (HCT-116) was > 100 µM (inactive) and the GI50 (EKVX) was > 100 µM (inactive).

`CC(C)N1C(C)[C@@H](c2ccccc2)O[P@@]1(=O)CC1=CCCCC1` (stereo not given in full) was tested, and the GI50 (HOP-92) was 45.8 µM (inactive), the GI50 (M14) was > 100 µM (inactive) and the GI50 (NCI-H460) was > 100 µM (inactive). For the same compound, the GI50 (TK-10) was > 100 µM (inactive), the GI50 (U-251) was > 100 µM (inactive) and the GI50 (HOP-62) was > 100 µM (inactive). For the same compound, the GI50 (UACC-62) was 47.1 µM (inactive), the GI50 (ACHN) was > 100 µM (inactive) and the GI50 (SK-MEL-28) was > 100 µM (inactive). The GI50 (SN12C) was > 100 µM (inactive), the GI50 (NCI-H522) was > 100 µM (inactive) and the GI50 (RPMI-8226) was 49.1 µM (inactive). The GI50 (SK-OV-3) was > 100 µM (inactive), the GI50 (HCT-116) was 90.2 µM (inactive) and the GI50 (EKVX) was > 100 µM (inactive).

`COc1ccc(/C=C2/CCCC/C2=N/O)cc1` was tested, and the GI50 (HOP-92) was 46.1 µM (inactive), the GI50 (M14) was > 100 µM (inactive) and the GI50 (NCI-H460) was > 100 µM (inactive). The GI50 (TK-10) was > 100 µM (inactive), the GI50 (U-251) was > 100 µM (inactive) and the GI50 (HOP-62) was > 100 µM (inactive). For the same compound, the GI50 (UACC-62) was > 100 µM (inactive), the GI50 (ACHN) was 88.9 µM (inactive) and the GI50 (SK-MEL-28) was > 100 µM (inactive). For the same compound, the GI50 (SN12C) was 75.7 µM (inactive), the GI50 (NCI-H522) was 40.5 µM (inactive) and the GI50 (RPMI-8226) was > 100 µM (inactive). For the same compound, the GI50 (SK-OV-3) was > 100 µM (inactive), the GI50 (HCT-116) was 87.7 µM (inactive) and the GI50 (EKVX) was > 100 µM (inactive).

`CCCCN(C)CC(C(C)=O)C(c1ccccc1)c1c(O)c2ccccc2oc1=O` (stereo not given) was tested, and the GI50 (M14) was > 100 µM (inactive), the GI50 (NCI-H460) was > 100 µM (inactive) and the GI50 (CAKI-1) was > 100 µM (inactive). The GI50 (TK-10) was > 100 µM (inactive), the GI50 (U-251) was > 100 µM (inactive) and the GI50 (HOP-62) was > 100 µM (inactive). The GI50 (UACC-62) was > 100 µM (inactive), the GI50 (ACHN) was > 100 µM (inactive) and the GI50 (SK-MEL-28) was > 100 µM (inactive). The GI50 (SN12C) was > 100 µM (inactive), the GI50 (NCI-H522) was > 100 µM (inactive) and the GI50 (RPMI-8226) was > 100 µM (inactive). For the same compound, the GI50 (SK-OV-3) was > 100 µM (inactive), the GI50 (HCT-116) was > 100 µM (inactive) and the GI50 (EKVX) was > 100 µM (inactive).

With `c1ccc2c(c1)C1CCCCCC21N1CCOCC1` (stereo not given) the GI50 (M14) was 98.2 µM (inactive), the GI50 (NCI-H460) was 69 µM (inactive) and the GI50 (CAKI-1) was > 100 µM (inactive). For the same compound, the GI50 (TK-10) was > 100 µM (inactive), the GI50 (U-251) was 78.5 µM (inactive) and the GI50 (HOP-62) was > 100 µM (inactive). The GI50 (UACC-62) was > 100 µM (inactive), the GI50 (ACHN) was > 100 µM (inactive) and the GI50 (SK-MEL-28) was > 100 µM (inactive). For the same compound, the GI50 (SN12C) was > 100 µM (inactive), the GI50 (NCI-H522) was 52.4 µM (inactive) and the GI50 (SK-OV-3) was > 100 µM (inactive). For the same compound, the GI50 (HCT-116) was 54.2 µM (inactive).
